From patent publication US10172962B2, “Macromolecular delivery systems for non-invasive imaging, evaluation and treatment of arthritis and other inflammatory diseases” (University of Utah Research Foundation, priority 2004, dated 2019)

Columns and labels:
Type in all cases: in vivo, rat
AIA rats [1] = experiment: Treatment of AIA rats: ankle joint swelling (caliper diameter)
Protocol: (§1) Male Lewis rats (175-200 g) were obtained from Charles River Laboratories (Portage, Mich.) and allowed to acclimate for at least one week. To induce arthritis, Mycobacterium Tuberculosis H37Ra (1 mg) and LA (5 mg) were mixed in paraffin oil (100 μL), sonicated and s.c. injected into the base of the rat's tail (20). The rats were then randomized into 3 rats/group. The progression of the joint inflammation was followed by measuring the diameter of the ankle joint with calipers. Special care was given to the rats as the inflammation developed to ensure availability and access to water and food. The MRI contrast agents used for the study were injected directly into the jugular vein while the animal was anesthetized with Ketamine and Xylazine.
. Hydrazine was used as the targeting moiety, as it may bind to negative charged moieties on cartilage. The anti-arthritic drug, dexamethasone, was linked to the polymer backbone (P-Dex) via a pH sensitive hydrozone bond as illustrated in FIG. 6. The polymer with the hydrazine and dexamethasone attached was then injected into AIA rats (4/group) on day 13 after the induction of arthritis. A single dose of 10 mg (P-Dex)/kg was given. […]

AIA rats [2] = experiment: Treatment of AIA rats: bone mineral density by peripheral dual x-ray absorptiometry; conditions: 7/group, FIG. 8
Protocol: The bone mineral density (BMD) of the bones in the arthritic joints was measured by peripheral dual x-ray absorptiometry (pDXA, Norland Medical Systems) adapted for small animals. For this the intact hind limbs were used and the scan region included the ankle and foot bones. The coefficient of variation between measurements was less than 1%.
One of the significant impacts of rheumatoid arthritis inflammation is the damage to the bone in the joints, which is evident in FIG. 8 of the animals with no treatment (saline). […] However, such improvement can be greatly strengthened if Dex is conjugated to HPMA copolymer. […] A more dynamic factor to consider in the bone metabolism is the extent of bone erosion. The bone eroded surface directly correlates with the recruitment and activity of osteoclasts, which are the cells responsible for bone resorption and the development of bone damage. In FIG. 9, the bone erosion surface data for all the treatment groups is summarized. […] The histology analysis of the arthritic joints with different treatments also confirmed the superiority of the P-Dex treatment (FIG. 10).

AIA rats [3] = experiment: Visualization of plasma albumin accumulation with Evans blue dye in AIA rats
Protocol: as §1
(§2) Evans blue dye (EB, 10 mg/kg in saline) was injected into healthy and AIA rats via the tail vein. The extravasation and accumulation of dye in the areas of joint inflammation could be visually observed as appearance of the blue pigment. Photographs of the ankle and paws were taken before and 8 hours after injection.
For this experiment, EB was injected into the rats 15 days after injection of the adjuvant. By this time, there is a robust inflammatory reaction evident in the ankle joints. […] Some deep blue spots were also observed on some digits of the paw. […]

healthy rats = experiment: Evans blue dye injection in healthy control rats; conditions: EB 10 mg/kg tail vein
Protocol: as §2
For this experiment, EB was injected into the rats 15 days after injection of the adjuvant. By this time, there is a robust inflammatory reaction evident in the ankle joints. […] Some deep blue spots were also observed on some digits of the paw. Photographs taken before and after injection of the EB dye confirm that the areas with dye accumulation correspond to those with marked inflammation.

Row | Compound | ankle joint swelling after the injections on day 13 (AIA rats [1]; P-Dex single dose 10 mg/kg day 13, Dex same dose divided in 4 daily doses day 13-16) | course of inflammation after cessation of the daily Dex injections (AIA rats [1]; P-Dex single dose day 13, Dex 4 daily doses day 13-16) | bone mineral density (BMD) / bone preservation of the arthritic joints (AIA rats [2]) | accumulation of dye in inflamed paws (AIA rats [3]; AIA rats, EB 10 mg/kg tail vein, 15 days after adjuvant) | nonspecific transfer of dye to other tissues (AIA rats [3]; organs including liver and heart) | localization of dye to joint areas (healthy rats)
1 | C[C@@H]1C[C@H]2[C@@H]3CCC4=CC(=O)C=C[C@]4(C)[C@@]3(F)[C@@H](O)C[C@]2(C)[C@@]1(O)C(=O)COP(=O)(O)O [Dex, Dexamethasone sodium phosphate] | dramatic decrease of ankle joint swelling | the inflammation rapidly got worse | can slow bone erosion |  |  | 
2 | Cc1cc(-c2ccc(/N=N/c3ccc4c(S(=O)(=O)O)cc(S(=O)(=O)O)c(N)c4c3O)c(C)c2)ccc1/N=N/c1ccc2c(S(=O)(=O)O)cc(S(=O)(=O)O)c(N)c2c1O [EB, Evans blue] |  |  |  | gradual accumulation of blue color in the inflamed hind paw and front paws | a slight blue staining was evident in some organs | the dye was not localized to joint areas
